# According to the NIST ThermoML archive (doi:10.1021/je100830b):
# ± gives the expanded uncertainty stated by the source.
# Settings: 298.15 K; 101.33 kPa; Liquid; Vibrating tube method
row,SMILES,mass density
1,C[N+](=O)[O-] [nitromethane],1130.9 ± 0.4 kg/m3
2,CCO [ethanol],786.4 ± 0.2 kg/m3
3,CCCCn1cc[n+](C)c1.COS(=O)(=O)[O-] [1-butyl-3-methylimidazolium methyl sulfate],1208 ± 2.8 kg/m3

# Continued, values first:
row,mass density,SMILES
1,786.3 ± 0.2 kg/m3,CO [methanol]
2,797.6 ± 0.2 kg/m3,CCCO [propan-1-ol]
